From patent US8299056B2 (Signal Pharmaceuticals, LLC, priority 2008, dated 2012) come the findings set out here.

The structures appear in SMILES notation.

For one assay, the target named is T1, Syk (Homo sapiens, UniProt P43405).
T1 construct: purchased Carna Biosciences
Nature of the assay: Syk HTRF assay. The note with it: IC50 activity level, read-out: Activity Level. Format: biochemical. In a few lines:
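HTRF kinase assay in HEPES pH 7.6 buffer with MgCl2, DTT and Triton X100; start mix of 87.5 μM ATP and 80 nM biotinylated peptide, 1 h at room temperature. EDTA stop, then Eu-anti-phosphotyrosine/streptavidin-DyLight 647 detection, read as 665/615 nm emission ratio.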
For orientation: Time-resolved FRET reads energy transfer from a long-lived donor to a nearby acceptor.
Take `CC(C)C(=O)Nc1cccc2nc(Nc3ccccc3)nn12` [Example 526, N-(2-(phenylamino)-[1,2,4]triazolo[1,5-a]pyridin-5-yl)isobutyramide]: the IC50 lay in the range of 1000 to 10000 nM.
The same measure, in the same setting: with `Cc1cc(Nc2nc3cccc(CC4CCOCC4)n3n2)cnc1N1CCOCC1` [Example 535, N-(5-methyl-6-morpholinopyridin-3-yl)-5-((tetrahydro-2H-pyran-4-yl)methyl)-[1,2,4]triazolo[1,5-a]pyridin-2-amine] the figure was 500 to 1000 nM; with `Fc1ccc(Nc2nc3cccc(NC4CCCCNC4)n3n2)cc1` (stereo not shown) [Example 427, N^5-(azepan-3-yl)-N^2-(4-fluorophenyl)-[1,2,4]triazolo[1,5-a]pyridine-2,5-diamine], 250 to 500 nM; with `CC(CN)Cc1cccc2nc(Nc3ccccc3)nn12` (stereo in doubt) [Example 459, (S)-5-(3-amino-2-methylpropyl)-N-phenyl-[1,2,4]triazolo[1,5-a]pyridin-2-amine], 1000 to 10000 nM.
Take `c1ccc(Nc2nc3cccc(N[C@H]4CCNC4)n3n2)cc1` [Example 475, (S)-N^2-phenyl-N^5-(pyrrolidin-3-yl)-[1,2,4]triazolo[1,5-a]pyridin-2,5-diamine]: the IC50 was in the range of 250 to 500 nM.
Still for that read-out and setting: with `O[C@H]1CC[C@@H](Cc2cccc3nc(Nc4ccc(C(F)(F)F)cc4)nn23)CC1` [Example 399, cis-4-((2-(4-(trifluoromethyl)phenylamino)-[1,2,4]triazolo[1,5-a]pyridin-5-yl)methyl)cyclohexanol] the figure was 0.005 to 250 nM.
On to `CC(=O)Nc1cccc2nc(Nc3ccccc3)nn12` [Example 527, N-(2-(phenylamino)-[1,2,4]triazolo[1,5-a]pyridin-5-yl)acetamide], for which the IC50 is 500 to 1000 nM.

The same assay, now with this note: activity levels A-D, read-out: Activity Level (IC50 in the Syk HTRF assay).
As for `O[C@H]1CCC[C@H](Nc2cccc3nc(Nc4ccc(C(F)(F)F)cc4)nn23)C1` (racemic) [Example 248, (±)-trans-3-(2-(4-(trifluoromethyl)phenylamino)-[1,2,4]triazolo[1,5-a]pyridin-5-ylamino)cyclohexanol], the IC50 is 0.005 to 250 nM.
Same read-out and setting: then `OCC1CCCN(Cc2cccc3nc(Nc4ccc(C(F)(F)F)cc4)nn23)C1` (stereo not shown) [Example 273, (1-((2-(4-(trifluoromethyl)phenylamino)-[1,2,4]triazolo[1,5-a]pyridin-5-yl)methyl)piperidin-3-yl)methanol], with 1000 to 10000 nM; and `OC1CCN(Cc2cccc3nc(Nc4ccc(C(F)(F)F)cc4)nn23)CC1` [Example 396, 1-((2-(4-(trifluoromethyl)phenylamino)-[1,2,4]triazolo[1,5-a]pyridin-5-yl)methyl)piperidin-4-ol], with 1000 to 10000 nM; and `O[C@H]1CC[C@@H](Nc2cccc3nc(Nc4ccc(Cl)cc4)nn23)CC1` [Example 353, cis-4-(2-(4-chlorophenylamino)-[1,2,4]triazolo[1,5-a]pyridin-5-ylamino)cyclohexanol], with 0.005 to 250 nM.
Still for that read-out and setting: then `COc1cncc(Nc2nc3cccc(N[C@H]4CC[C@@H](O)CC4)n3n2)c1` [Example 368, cis-4-(2-(5-methoxypyridin-3-ylamino)-[1,2,4]triazolo[1,5-a]pyridin-5-ylamino)cyclohexanol], with 500 to 1000 nM; and `Cc1c2ccc(Nc3nc4cccc(N[C@H]5CC[C@@H](O)CC5)n4n3)cc2nn1C` [Example 217, cis-4-(2-(2,3-dimethyl-2H-indazol-6-ylamino)-[1,2,4]triazolo[1,5-a]pyridin-5-ylamino)cyclohexanol], with 0.005 to 250 nM; and `Cc1cc(Nc2nc3cccc(N[C@H]4CC[C@@H](O)CC4)n3n2)cc2[nH]ncc12` [Example 204, cis-4-(2-(4-methyl-1H-indazol-6-ylamino)-[1,2,4]triazolo[1,5-a]pyridin-5-ylamino)cyclohexanol], with 0.005 to 250 nM.
Still for that read-out and setting: with `OCC1CCN(Cc2cccc3nc(Nc4ccc(C(F)(F)F)cc4)nn23)C1` (stereo in doubt) [Example 323, (R)-(1-((2-(4-(trifluoromethyl)phenylamino)-[1,2,4]triazolo[1,5-a]pyridin-5-yl)methyl)pyrrolidin-3-yl)methanol] the figure was 1000 to 10000 nM.
Regarding `O[C@@H]1CCCC1Nc1cccc2nc(Nc3ccc(C(F)(F)F)cc3)nn12` (stereo in doubt) [Example 377, (1R,2R)-2-(2-(4-(trifluoromethyl)phenylamino)-[1,2,4]triazolo[1,5-a]pyridin-5-ylamino)cyclopentanol], the IC50 lay in the range of 0.005 to 250 nM.
The same measure, in the same setting: then `CNC(=O)c1ccc(Nc2nc3cccc(N4CCC(O)CC4)n3n2)cc1` [Example 242, 4-(5-(4-hydroxypiperidin-1-yl)-[1,2,4]triazolo[1,5-a]pyridin-2-ylamino)-N-methylbenzamide], with 1000 to 10000 nM; and `FC(F)(F)c1ccc(Nc2nc3cccc(N4CCCC4)n3n2)cc1` [Example 307, 5-(pyrrolidin-1-yl)-N-(4-(trifluoromethyl)phenyl)-[1,2,4]triazolo[1,5-a]pyridin-2-amine], with 1000 to 10000 nM; and `NC(=O)c1cc(Nc2nc3cccc(N[C@H]4CC[C@@H](O)CC4)n3n2)ccc1F` [Example 318, cis-2-fluoro-5-(5-(4-hydroxycyclohexylamino)-[1,2,4]triazolo[1,5-a]pyridin-2-ylamino)benzamide], with 1000 to 10000 nM.
On the same count and under the same terms, then `CNC(=O)c1ccc(Nc2nc3cccc(-c4ccc5nc(C)[nH]c5c4)n3n2)cc1` [Example 244, N-methyl-4-(5-(2-methyl-1H-benzo[d]imidazol-6-yl)-[1,2,4]triazolo[1,5-a]pyridin-2-ylamino)benzamide], with 0.005 to 250 nM; and `CN(C)c1ccc(Nc2nc3cccc(N[C@H]4CC[C@@H](O)CC4)n3n2)cn1` [Example 392, cis-4-(2-(6-(dimethylamino)pyridin-3-ylamino)-[1,2,4]triazolo[1,5-a]pyridin-5-ylamino)cyclohexanol], with 250 to 500 nM.

The same assay, now with this note: read-out: Activity Level (Syk HTRF assay IC50).
For `CN1C(=O)C(C)(C)c2ccc(Nc3nc4cccc(CC5CCOCC5)n4n3)cc21` [Example 143, 1,3,3-trimethyl-6-(5-((tetrahydro-2H-pyran-4-yl)methyl)-[1,2,4]triazolo[1,5-a]pyridin-2-ylamino)indolin-2-one], the IC50 was 0.005 to 250 nM.
For `CN1C(=O)C(C)(C)c2ccc(Nc3nc4cccc(CN5CCNC(=O)C5)n4n3)cc21` [Example 136, 1,3,3-trimethyl-6-(5-((3-oxopiperazin-1-yl)methyl)-[1,2,4]triazolo[1,5-a]pyridin-2-ylamino)inolin-2-one], the IC50 was in the range of 0.005 to 250 nM.
For the compound `N#Cc1cccc(-c2cccc3nc(Nc4ccc(C(N)=O)cc4)nn23)c1` [compound 63, 4-(5-(3-cyanophenyl)-[1,2,4]triazolo[1,5-a]pyridin-2-ylamino)benzamide], the IC50 lay within 250 to 500 nM.
As for `CN(CCO)c1cccc2nc(Nc3ccc4c(c3)NC(=O)C4(C)C)nn12` [Example 153, 6-(5-((2-hydroxyethyl)(methyl)amino)-[1,2,4]triazolo[1,5-a]pyridin-2-ylamino)-3,3-dimethylindolin-2-one], the IC50 lay within 0.005 to 250 nM.
Same read-out and setting: then `CNC(=O)c1ccc(Nc2nc3cccc(-c4cccc(O)c4)n3n2)c(OC)c1` [compound 15, 4-(5-(3-hydroxyphenyl)-[1,2,4]triazolo[1,5-a]pyridin-2-ylamino)-3-methoxy-N-methylbenzamide], with 500 to 1000 nM.
The same measure, in the same setting: then `CC1(C)C(=O)Nc2cc(Nc3nc4cccc(CC5CCNCC5)n4n3)ccc21` [Example 138, 3,3-dimethyl-6-(5-(piperidin-4-ylmethyl)-[1,2,4]triazolo[1,5-a]pyridin-2-ylamino)indolin-2-one], with 0.005 to 250 nM; and `O=C1c2ccc(Nc3nc4cccc(N[C@H]5CC[C@@H](O)CC5)n4n3)cc2CN1CCO` [Example 198, cis-5-(5-(4-hydroxycyclohexylamino)-[1,2,4]triazolo[1,5-a]pyridin-2-ylamino)-2-(2-hydroxyethyl)isoindolin-1-one], with 0.005 to 250 nM; and `Cn1nc(NC2CCOCC2)c2ccc(Nc3nc4cccc(CC5CCOCC5)n4n3)cc21` [Example 99], with 1000 to 10000 nM.
With `CC1(C)C(=O)Nc2cc(Nc3nc4cccc(N[C@H]5CC[C@@](C)(O)CC5)n4n3)ccc21` [Example 163, cis-6-(5-(4-hydroxy-4-methylcyclohexylamino)-[1,2,4]triazolo[1,5-a]pyridin-2-ylamino)-3,3-dimethylindolin-2-one], the IC50 is 0.005 to 250 nM.
On to `Cc1n[nH]c2cc(Nc3nc4cccc(N[C@H]5CC[C@@H](O)CC5)n4n3)cc(F)c12` [Example 164, cis-4-(2-(4-fluoro-3-methyl-1H-indazol-6-ylamino)-[1,2,4]triazolo[1,5-a]pyridin-5-ylamino)cyclohexanol], for which the IC50 fell in the range of 0.005 to 250 nM.
As to `c1ccc(-c2cccc3nc(Nc4ccc5cnoc5c4)nn23)cc1` [compound 48, N-(5-phenyl-[1,2,4]triazolo[1,5-a]pyridin-2-yl)benzo[d]isoxazol-6-amine], the IC50 was 1000 to 10000 nM.
As for `CC1(C)C(=O)Nc2cc(Nc3nc4cccc(CC5CCOCC5)n4n3)ccc21` [Example 176, 3,3-dimethyl-6-(5-((tetrahydro-2H-pyran-4-yl)methyl)-[1,2,4]triazolo[1,5-a]pyridin-2-ylamino)indolin-2-one], the IC50 lay in the range of 0.005 to 250 nM.
Same read-out and setting: then `c1ccc(-c2cccc3nc(Nc4ccc5cn[nH]c5c4)nn23)cc1` [compound 68], with 0.005 to 250 nM; and `Fc1ccccc1-c1cccc2nc(Nc3ccccc3)nn12` [compound 80, 5-(2-fluorophenyl)-N-phenyl-[1,2,4]triazolo[1,5-a]pyridin-2-amine], with 1000 to 10000 nM; and `Cc1cc(Nc2nc3cccc(CC4CCOCC4)n3n2)cc2c1cnn2C` [Example 147, N-(1,4-dimethyl-1H-indazol-6-yl)-5-((tetrahydro-2H-pyran-4-yl)methyl)-[1,2,4]triazolo[1,5-a]pyridin-2-amine], with 0.005 to 250 nM.
On to `Cn1ncc2cc(Nc3nc4cccc(N[C@H]5CC[C@@H](O)CC5)n4n3)cnc21` [Example 139, cis-4-(2-(1-methyl-1H-pyrazolo[3,4-b]pyridin-5-ylamino)-[1,2,4]triazolo[1,5-a]pyridin-5-ylamino)cyclohexanol], for which the IC50 was 0.005 to 250 nM.
